Source: patent US8546421B1, “Oncogenic-RAS-signal dependent lethal compounds” (The Trustees of Columbia University in the City of New York, priority 2007, dated 2013)

How the values were obtained:
NCI-H522 = assay: NCI60 anti-cancer screening
SK-MEL-28 = assay: NCI60 anti-cancer screening
MCF-7 = assay: NCI60 anti-cancer screening
OVCAR-3 [1] = settings: Ovarian Cancer
OVCAR-8 = assay: NCI60 anti-cancer screening
OVCAR-4 = assay: NCI60 anti-cancer screening
HS 578T = assay: NCI60 anti-cancer screening; settings: for GI 100%: HS 578T, Breast Cancer; for GI50 / CC50: Homo sapiens, Hs-578T; for CC50: read-out: LC 50%
CCRF-CEM = assay: NCI60 anti-cancer screening; settings: for GI 100%: Leukemia
HL-60(TB) = assay: cells; settings: Homo sapiens; for GI50: HL-60; for CC50: HL-60, read-out: LC 50%
SN12C = assay: NCI60 anti-cancer screening
MOLT-4 = assay: NCI60 anti-cancer screening; settings: for GI50 / CC50: Homo sapiens; for GI50 / GI 100%: MOLT-4; for CC50: MOLT-4, read-out: LC 50%; for GI 100%: Leukemia
OVCAR-3 [2] = assay: cells; settings: Homo sapiens
HOP-92 = assay: NCI60 anti-cancer screening; settings: for GI 100% / GI50: HOP-92; for GI 100%: Non-small cell lung carcinoma; for GI50 / CC50: Homo sapiens; for CC50: HOP-92, read-out: LC 50%
SW-620 = assay: NCI60 anti-cancer screening
[3] = test system: BJ-TERT/LT/ST/RAS^V12 cells; assay: Counter screening with iron chelators; type: cell-based, human; settings: DFOM and three additional iron-binding compounds; 24 hours
Experimental: Cells were treated with iron chelators by transferring 4 μL of 1 mM deferoxamine mesylate (Calbiochem, cat.#252750), 500 μM compound 1a (Chembridge, cat.#5175092), 1 mM compound 2 (Ryan Scientific, cat.#LT01784723), or 100 μM compound 311 (Chembridge, cat.#5135701) in growth media to the assay plate. Then, 4 μL was transferred from the ‘10× lethal plate’ (described in ‘counter screening with biologically active compounds’) to the assay plate in order to induce cell death. Assay plates were incubated for 24 hours and alamar blue was added to the plates at a final concentration of 10%.

SNB-75 = assay: NCI60 anti-cancer screening
HT1080-TfR1KD cells = assay: Drug sensitivity after shRNA knockdown of TfR1; type: cell-based, human; settings: alamar blue
Experimental: (§1) On day one, 3×10^5 Calu-1 cells or 2×10^5 HT1080 cells were seeded in 10-cm dishes; on day 2, frozen virus stock was thawed at 37° C., hexadimethrine bromide (polybrene) (Sigma, cat.#H9268) was added to the virus solution at a final concentration of 8 μg/mL and growth media from cell culture was replaced with the virus/polybrene mixture. The culture was returned to the tissue culture incubator for 2 hours, with rocking of the dishes every 30 min in order to prevent drying. After 2 h, 10 mL growth medium was added, the culture was incubated for 2 days, and cells stably expressing shRNA were selected by adding puromycin (Sigma, cat.#P9620) at a final concentration of 1.5 μg/mL.
(§2) On the day of experiment, assay plates were prepared by seeding 3,000 HT1080, HT1080-pLKO, HT1080-TfR1 KD, Calu-1, Calu-1-pLKO, or Calu-1-509 cells per well in 36 μL of growth media to black, clear bottom 384-well plates. Also, assay plates were prepared by seeding 1,500 shRNA infected HT1080 or Calu-1 cells per well. Cells in assay plates were treated with each lethal compound in a 2-fold dilution series by transferring 4 μL solution from a 10× lethal plate of Erastin, Compound 3, Compound 27, or Compound 36. […] Percent growth inhibition (% GI) was calculated using fluorescence intensity values.

VDAC3 in HT1080 cells = assay: Drug sensitivity after shRNA knockdown of VDAC3; type: cell-based, human; settings: shRNAs targeting VDAC3, alamar blue
Experimental: as §1, §2

CCc1c(O)c2c(c(O)c1O[C@H]1O[C@@H](COC(C)=O)[C@H](OC(C)=O)[C@@H](CC(C)=O)[C@@H]1OC(C)=O)C(=O)C(O[C@@H]1O[C@H](COC(C)=O)[C@@H](OC(C)=O)[C@H](OC(C)=O)[C@H]1OC(C)=O)=C(O[C@@H]1O[C@H](COC(C)=O)[C@@H](OC(C)=O)[C@H](OC(C)=O)[C@H]1OC(C)=O)C2=O [Compound 6]
GI50 (NCI-H522; Homo sapiens, NCI-H522): 0.49 µM
CC50 (NCI-H522; Homo sapiens, NCI-H522, read-out: LC 50%): 5.12 µM
GI 100% (NCI-H522; NCI-H522, Non-small cell lung carcinoma): 1.79 µM
GI50 (SK-MEL-28; Homo sapiens, SK-MEL-28): 1.46 µM
CC50 (SK-MEL-28; Homo sapiens, SK-MEL-28, read-out: LC 50%): 6.63 µM
GI 100% (SK-MEL-28; SK-MEL-28, Melanoma): 3.11 µM
GI50 (MCF-7; Homo sapiens, MCF7): 1.55 µM
CC50 (MCF-7; Homo sapiens, MCF7, read-out: LC 50%): 9.18 µM
GI 100% (MCF-7; MCF-7, Breast Cancer): 3.78 µM
GI 100% (OVCAR-3 [1]): >10 µM
GI50 (OVCAR-8; Homo sapiens, OVCAR-8): 4.22 µM
CC50 (OVCAR-8; Homo sapiens, OVCAR-8, read-out: LC 50%): > 10 µM
GI 100% (OVCAR-8; OVCAR-8, Ovarian Cancer): >10 µM
GI50 (OVCAR-4; Homo sapiens, OVCAR-4): 5.71 µM
CC50 (OVCAR-4; Homo sapiens, OVCAR-4, read-out: LC 50%): > 10 µM
GI 100% (OVCAR-4; OVCAR-4, Ovarian Cancer): >10 µM
GI 100% (HS 578T): >10 µM
GI50 (HS 578T): 3.31 µM
CC50 (HS 578T): > 10 µM
GI50 (CCRF-CEM; Homo sapiens): 0.115 µM
GI 100% (CCRF-CEM): 0.422 µM
GI50 (HL-60(TB)): 0.516 µM
CC50 (HL-60(TB)): 8.25 µM
GI50 (SN12C; Homo sapiens): 8.1 µM
CC50 (SN12C; Homo sapiens, read-out: LC 50%): > 10 µM
GI 100% (SN12C; Renal Cancer): >10 µM
GI50 (MOLT-4): 0.783 µM
CC50 (MOLT-4): > 10 µM
GI 100% (MOLT-4): 3.91 µM
GI50 (OVCAR-3 [2]; OVCAR-3): 3.52 µM
CC50 (OVCAR-3 [2]; OVCAR-3, read-out: LC 50%): > 10 µM
GI 100% (HOP-92): 4.31 µM
GI50 (HOP-92): 1.48 µM
CC50 (HOP-92): > 10 µM
GI50 (SW-620; Homo sapiens, SW-620): 0.271 µM
CC50 (SW-620; Homo sapiens, SW-620, read-out: LC 50%): 3.9 µM
GI 100% (SW-620; SW-620, Colon Cancer): 1.03 µM

COCCOC(=O)C1=C(C)NC2=C(C(=O)CC(c3ccc(Cl)cc3)C2)C1c1ccccc1F (stereo not drawn) [Compound 3]
effect of iron chelators on compound activity / induced cell death [3]: significantly inhibited
GI50 (SNB-75; Homo sapiens, SNB-75): 9.61 µM
CC50 (SNB-75; Homo sapiens, SNB-75, read-out: LC 50%): > 10 µM
GI 100% (SNB-75; SNB-75, CNS Cancer): >10 µM
sensitivity of HT1080-TfR1KD cells compared with parental HT1080 (HT1080-TfR1KD cells): decreased sensitivity
GI 100% (HS 578T): >10 µM
GI50 (HS 578T): 9.31 µM
CC50 (HS 578T): > 10 µM
GI50 (CCRF-CEM; Homo sapiens): 7.95 µM
CC50 (CCRF-CEM; Homo sapiens, read-out: LC 50%): > 10 µM
GI 100% (CCRF-CEM): >10 µM
GI50 (HL-60(TB)): 9.8 µM
CC50 (HL-60(TB)): > 10 µM
GI50 (MOLT-4): 8.39 µM
CC50 (MOLT-4): > 10 µM
GI 100% (MOLT-4): >10 µM
GI 100% (HOP-92): >10 µM
GI50 (HOP-92): 6.18 µM
CC50 (HOP-92): > 10 µM
effect of VDAC3 knockdown on compound-induced cell death (VDAC3 in HT1080 cells): suppressed
